Experimental data: the Kinase Knowledgebase extract (Sharma et al. 2016)

Columns and labels:
PIK3CD (Human) = PIK3CD (Human) (UniProt O00329); assay: Assessment of PIK3CD Kinase Activity
PIK3CG (human) = PIK3CG (human) (UniProt P48736); assay: Assessment of PIK3CG Kinase Activity
PIK3CB (Human) = PIK3CB (Human) (UniProt P42338); assay: Assessment of PIK3CB Kinase Activity
Chain of PIK3CB (Human) (P42338 whole entry, looked up): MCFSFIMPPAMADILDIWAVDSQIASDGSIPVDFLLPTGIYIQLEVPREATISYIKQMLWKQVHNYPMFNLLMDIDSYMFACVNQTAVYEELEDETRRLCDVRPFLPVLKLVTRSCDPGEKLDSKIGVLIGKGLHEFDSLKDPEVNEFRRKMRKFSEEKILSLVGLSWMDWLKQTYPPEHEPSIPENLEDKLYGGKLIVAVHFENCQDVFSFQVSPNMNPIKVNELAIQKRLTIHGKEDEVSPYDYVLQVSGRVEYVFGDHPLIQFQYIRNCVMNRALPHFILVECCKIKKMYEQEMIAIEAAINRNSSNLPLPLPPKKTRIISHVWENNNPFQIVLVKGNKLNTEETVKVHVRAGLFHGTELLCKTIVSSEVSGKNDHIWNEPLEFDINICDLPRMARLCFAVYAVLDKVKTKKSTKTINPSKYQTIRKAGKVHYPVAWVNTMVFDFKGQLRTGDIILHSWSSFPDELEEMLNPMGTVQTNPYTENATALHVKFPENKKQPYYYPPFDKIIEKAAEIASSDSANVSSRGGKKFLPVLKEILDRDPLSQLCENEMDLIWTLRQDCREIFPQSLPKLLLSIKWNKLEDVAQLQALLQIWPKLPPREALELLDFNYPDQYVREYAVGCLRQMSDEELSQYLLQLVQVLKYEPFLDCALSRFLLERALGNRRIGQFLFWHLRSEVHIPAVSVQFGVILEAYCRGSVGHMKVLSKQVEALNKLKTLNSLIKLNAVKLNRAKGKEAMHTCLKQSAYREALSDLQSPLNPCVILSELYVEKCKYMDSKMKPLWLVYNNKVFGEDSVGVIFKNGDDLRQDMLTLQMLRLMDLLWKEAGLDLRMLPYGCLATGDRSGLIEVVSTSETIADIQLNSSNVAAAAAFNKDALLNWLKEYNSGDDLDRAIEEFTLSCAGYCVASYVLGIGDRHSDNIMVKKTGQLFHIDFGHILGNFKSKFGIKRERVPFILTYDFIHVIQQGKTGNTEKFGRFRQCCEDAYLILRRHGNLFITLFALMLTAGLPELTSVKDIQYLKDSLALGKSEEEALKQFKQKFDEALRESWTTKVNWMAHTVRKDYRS

Chain of PIK3CG (human) (P48736 whole entry, looked up): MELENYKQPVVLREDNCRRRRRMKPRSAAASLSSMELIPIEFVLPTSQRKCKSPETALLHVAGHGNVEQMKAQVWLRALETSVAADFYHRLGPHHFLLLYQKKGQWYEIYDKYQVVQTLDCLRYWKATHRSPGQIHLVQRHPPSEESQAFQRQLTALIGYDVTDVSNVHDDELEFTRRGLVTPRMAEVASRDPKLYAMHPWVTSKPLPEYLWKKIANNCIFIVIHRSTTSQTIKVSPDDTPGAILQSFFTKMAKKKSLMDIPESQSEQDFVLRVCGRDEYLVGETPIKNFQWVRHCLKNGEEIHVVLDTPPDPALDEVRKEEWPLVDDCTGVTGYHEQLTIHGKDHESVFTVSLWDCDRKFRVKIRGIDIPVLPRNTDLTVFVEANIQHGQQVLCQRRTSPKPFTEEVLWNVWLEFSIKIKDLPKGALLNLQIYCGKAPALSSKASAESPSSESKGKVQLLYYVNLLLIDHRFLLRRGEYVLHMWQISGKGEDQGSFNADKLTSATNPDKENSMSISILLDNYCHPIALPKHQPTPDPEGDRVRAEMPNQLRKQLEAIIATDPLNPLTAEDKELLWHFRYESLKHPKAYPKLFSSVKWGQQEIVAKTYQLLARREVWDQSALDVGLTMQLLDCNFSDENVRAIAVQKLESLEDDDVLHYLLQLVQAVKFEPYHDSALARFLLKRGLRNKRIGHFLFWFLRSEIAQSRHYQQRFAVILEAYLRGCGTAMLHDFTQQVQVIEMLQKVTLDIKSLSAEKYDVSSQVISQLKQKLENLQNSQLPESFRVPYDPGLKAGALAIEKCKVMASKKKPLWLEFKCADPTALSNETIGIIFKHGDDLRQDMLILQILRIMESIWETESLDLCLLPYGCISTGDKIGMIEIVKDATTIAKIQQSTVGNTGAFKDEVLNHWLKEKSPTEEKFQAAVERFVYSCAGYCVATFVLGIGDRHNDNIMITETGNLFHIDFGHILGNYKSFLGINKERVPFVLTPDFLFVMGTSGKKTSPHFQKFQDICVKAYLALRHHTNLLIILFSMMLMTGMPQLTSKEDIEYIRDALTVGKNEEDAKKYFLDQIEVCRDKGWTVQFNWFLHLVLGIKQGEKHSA
Chain of PIK3CD (Human) (O00329 whole entry, looked up): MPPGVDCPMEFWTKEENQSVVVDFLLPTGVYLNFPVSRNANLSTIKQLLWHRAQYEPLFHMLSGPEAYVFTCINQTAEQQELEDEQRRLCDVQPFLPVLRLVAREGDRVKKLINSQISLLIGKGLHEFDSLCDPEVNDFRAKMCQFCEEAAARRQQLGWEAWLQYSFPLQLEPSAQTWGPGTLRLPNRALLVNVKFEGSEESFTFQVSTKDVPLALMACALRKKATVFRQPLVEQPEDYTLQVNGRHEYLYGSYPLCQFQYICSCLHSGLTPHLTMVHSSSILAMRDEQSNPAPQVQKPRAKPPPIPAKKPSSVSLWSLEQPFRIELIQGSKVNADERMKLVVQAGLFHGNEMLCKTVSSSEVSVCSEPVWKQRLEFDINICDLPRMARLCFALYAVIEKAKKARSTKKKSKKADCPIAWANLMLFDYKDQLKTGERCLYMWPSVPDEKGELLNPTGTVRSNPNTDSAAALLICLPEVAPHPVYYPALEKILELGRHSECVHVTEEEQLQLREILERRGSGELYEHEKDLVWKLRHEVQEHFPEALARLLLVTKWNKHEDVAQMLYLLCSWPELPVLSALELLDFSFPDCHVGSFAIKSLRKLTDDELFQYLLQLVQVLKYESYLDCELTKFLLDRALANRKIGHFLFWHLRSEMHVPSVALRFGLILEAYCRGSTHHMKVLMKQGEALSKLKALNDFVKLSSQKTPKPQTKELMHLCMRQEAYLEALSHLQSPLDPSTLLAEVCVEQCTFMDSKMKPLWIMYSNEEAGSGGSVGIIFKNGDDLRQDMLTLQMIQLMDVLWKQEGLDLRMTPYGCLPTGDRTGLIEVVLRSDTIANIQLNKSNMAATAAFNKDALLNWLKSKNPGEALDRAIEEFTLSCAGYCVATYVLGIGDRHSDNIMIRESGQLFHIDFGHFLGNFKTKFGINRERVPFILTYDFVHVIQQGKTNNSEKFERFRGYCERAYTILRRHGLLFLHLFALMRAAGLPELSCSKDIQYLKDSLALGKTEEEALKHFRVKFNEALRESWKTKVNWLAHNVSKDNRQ

| Compound | IC50 (PIK3CD (Human)) [nM] | IC50 (PIK3CG (human)) [nM] | IC50 (PIK3CB (Human)) [nM] |
| --- | --- | --- | --- |
| C[C@H](Nc1ncnc2cccnc12)c1cc2cccc(C(F)(F)F)c2c(=O)n1-c1cccc(F)c1 | < 100 | < 100 |  |
| C[C@H](Nc1ncnc2[nH]cc(C(N)=O)c12)c1cc2cccc(C(F)(F)F)c2c(=O)n1-c1ccccc1 | < 100 | < 100 | 100 to 1000 |
| C[C@H](Nc1nc(N)nc2cccnc12)c1cc2cccc(-c3cncnc3)c2c(=O)n1-c1ccccc1 | < 100 | < 100 |  |
| C[C@H](Nc1ncnc2cccnc12)c1cc2c(F)cccc2c(=O)n1-c1ccccc1 | < 100 | < 100 |  |
| C[C@H](Nc1ncnc2cccnc12)c1cc2cccc(-c3cnn(C)c3)c2c(=O)n1C1CC1 | < 100 | < 100 |  |
| C[C@H](Nc1ccnn2ccnc12)c1cc2scc(Cl)c2c(=O)n1-c1ccccc1 | < 100 | < 100 | 100 to 1000 |
| C[C@H](Nc1ncnc2cccnc12)c1cc2cccc(C(F)(F)F)c2c(=O)n1-c1ccccc1 | < 100 | < 100 | 100 to 1000 |
| C[C@H](Nc1nc(N)nc2cccnc12)c1cc2cccc(-c3ccnnc3)c2c(=O)n1-c1cccc(F)c1 | < 100 | < 100 | > 10000 |
| C[C@H](Nc1ccnc2cccnc12)c1cc2cccc(-c3cnn(C)c3)c2c(=O)n1-c1ccccc1 | < 100 | < 100 |  |
| COc1ncc(-c2cccc3cc([C@H](C)Nc4ccnn5ccnc45)n(-c4ccccc4)c(=O)c23)cn1 | < 100 | 100 to 1000 | > 10000 |
| C[C@H](Nc1ccnc2cccnc12)c1cc2cccc(Cl)c2c(=O)n1-c1cccc(F)c1 | < 100 | < 100 |  |
| C[C@H](Nc1ncnn2ccnc12)c1cc2cccc(C(F)(F)F)c2c(=O)n1-c1ccccc1 | < 100 | < 100 | 100 to 1000 |
| C[C@H](Nc1ccnn2ccnc12)c1cc2cccc(C(F)(F)F)c2c(=O)n1-c1cccc(F)c1 | < 100 | < 100 |  |
| C[C@H](Nc1ncnc2[nH]cnc12)c1cc2cccc(C(F)(F)F)c2c(=O)n1-c1ccccc1 | < 100 | < 100 | 100 to 1000 |
| C[C@H](Nc1ncnc2cccnc12)c1cc2cc(F)ccc2c(=O)n1-c1ccccc1 | 100 to 1000 |  | > 10000 |
| Cc1cccc2cc([C@H](C)Nc3ncnc4cccnc34)n(-c3cccc(F)c3)c(=O)c12 | < 100 | < 100 |  |
| C[C@H](Nc1ncnc2ccnn12)c1cc2cccc(Cl)c2c(=O)n1-c1ccccc1 | < 100 | < 100 | 100 to 1000 |
| CNc1nc(N[C@@H](C)c2cc3cccc(Cl)c3c(=O)n2-c2ccccc2)c2ncccc2n1 | < 100 | < 100 |  |
| Cc1nn(C)cc1-c1cccc2cc([C@H](C)Nc3ncnc4cccnc34)n(-c3ccccc3)c(=O)c12 | < 100 | < 100 | > 10000 |
| C[C@H](Nc1ccnc2ccnn12)c1cc2scc(Cl)c2c(=O)n1-c1ccccc1 | < 100 | < 100 | 100 to 1000 |
| C[C@H](Nc1ncnn2ccnc12)c1cc2cccc(Cl)c2c(=O)n1-c1ccccc1 | < 100 | < 100 | 100 to 1000 |
| C[C@H](Nc1ccnn2ccnc12)c1cc2cccc(-c3cnn(C)c3)c2c(=O)n1-c1ccccc1 | < 100 | < 100 |  |
| C[C@H](Nc1ccnn2ccnc12)c1cc2cccc(-c3cnn(C)c3)c2c(=O)n1-c1cccc(F)c1 | < 100 | < 100 | > 10000 |
| C[C@H](Nc1ccnc2cccnc12)c1cc2cccc(Cl)c2c(=O)n1-c1ccccc1 | < 100 | < 100 | 100 to 1000 |

| Compound | IC50 (PIK3CD (Human)) [nM] | IC50 (PIK3CG (human)) [nM] | IC50 (PIK3CB (Human)) [nM] |
| --- | --- | --- | --- |
| Cc1ncc(-c2cccc3cc([C@H](C)Nc4nc(N)nc5cccnc45)n(-c4cccc(F)c4)c(=O)c23)cn1 | < 100 | < 100 | > 10000 |
| C[C@H](Nc1nc(N)ncc1C#N)c1cc2cccc(C(F)(F)F)c2c(=O)n1-c1cccc(F)c1 | < 100 | < 100 | 100 to 1000 |
| C[C@H](Nc1ccnc2ccnn12)c1cc2cccc(-c3cnn(C)c3)c2c(=O)n1-c1ccccc1 | < 100 | < 100 |  |
| Cc1cc(-c2cccc3cc([C@H](C)Nc4ncnc5cccnc45)n(-c4ccccc4)c(=O)c23)cnc1C | < 100 | 100 to 1000 | > 10000 |
| COc1ccc(-c2cccc3cc([C@H](C)Nc4ncnc5cccnc45)n(-c4ccccc4)c(=O)c23)cn1 | < 100 | < 100 | > 10000 |
| C[C@H](Nc1ccnc2ccnn12)c1cc2cccc(Cl)c2c(=O)n1-c1cccc(F)c1 | < 100 | < 100 |  |
| C[C@H](Nc1ccnc2scnc12)c1cc2cccc(C(F)(F)F)c2c(=O)n1-c1ccccc1 | < 100 | < 100 | 100 to 1000 |
| C[C@H](Nc1ncnc2scnc12)c1cc2scc(C(F)(F)F)c2c(=O)n1-c1ccccc1 | < 100 | < 100 | 100 to 1000 |
| C[C@H](Nc1ncnc2cccnc12)c1cc2cccc(Cl)c2c(=O)n1-c1ccccc1 | < 100 | < 100 | 100 to 1000 |
| C[C@H](Nc1ncnc2cccnc12)c1cc2cccc(-c3cnn(C)c3)c2c(=O)n1-c1cccc(F)c1 | < 100 | < 100 | > 10000 |
| C[C@H](Nc1nc(N)nc2cccnc12)c1cc2cccc(-c3ccnnc3)c2c(=O)n1-c1ccccc1 | < 100 | < 100 |  |
| C[C@H](Nc1ncnc2cccnc12)c1cc2scc(Cl)c2c(=O)n1-c1ccccc1 | < 100 | < 100 | 100 to 1000 |
| C[C@H](Nc1nc(N)nc2cccnc12)c1cc2cccc(-c3cnn(C)c3)c2c(=O)n1-c1cccc(F)c1 | < 100 | < 100 | > 10000 |
| C[C@H](Nc1nc(N)nc2cccnc12)c1nc2cccc(-c3ccnnc3)c2c(=O)n1-c1ccccc1 | < 100 | < 100 | > 10000 |
| C[C@H](Nc1nc(N)nc2[nH]cnc12)c1cc2cccc(C(F)(F)F)c2c(=O)n1-c1cccc(F)c1 | < 100 | < 100 | 100 to 1000 |
| C[C@H](Nc1ncnc2cccnc12)c1cc2cccc(-c3ccc(N)nc3)c2c(=O)n1-c1ccccc1 | < 100 | < 100 | > 10000 |
| C[C@H](Nc1ncnc2[nH]cc(F)c12)c1cc2cccc(C(F)(F)F)c2c(=O)n1-c1ccccc1 | < 100 | < 100 |  |
| C[C@H](Nc1ccnc2ccnn12)c1cc2cccc(Cl)c2c(=O)n1-c1ccccc1 | < 100 | < 100 | 100 to 1000 |
| C[C@H](Nc1nc(N)nc2cccnc12)c1cc2cccc(C(F)(F)F)c2c(=O)n1-c1ccccc1 | < 100 | < 100 | 100 to 1000 |
| C[C@H](Nc1nc(N)nc2scnc12)c1cc2cccc(C(F)(F)F)c2c(=O)n1-c1ccccc1 | < 100 | < 100 |  |
| C[C@H](Nc1ccnc2ccnn12)c1cc2cccc(-c3cnn(C)c3)c2c(=O)n1C1CC1 | < 100 |  |  |
| C[C@H](Nc1ncnn2ccnc12)c1cc2cccc(Cl)c2c(=O)n1-c1cccc(F)c1 | < 100 | < 100 |  |
| C[C@H](Nc1ccnn2ccnc12)c1cc2cccc(-c3cnn(C)c3)c2c(=O)n1C1CC1 | < 100 | 100 to 1000 |  |
| C[C@H](Nc1ncnc2cccnc12)c1cc2ccc(F)cc2c(=O)n1-c1ccccc1 | < 100 | < 100 |  |
